Earlier results on one molecule are cited in publication PMC8018653, “Gender-based differences in brain and plasma pharmacokinetics of letrozole in sprague-dawley rats: Application of physiologically-based pharmacokinetic modeling to gain quantitative insights” (PLoS ONE, 2021).

The data set concerns P-glycoprotein (P-gp). To be noted: cited from earlier work.

Take `CC(C)(C#N)c1cc(Cn2cncn2)cc(C(C)(C)C#N)c1` [anastrozole]: the “substrate for the efflux transporter P-glycoprotein (P-gp)” value is “substrate”.
